# Test results from ChEMBL document CHEMBL1201862, “PubChem BioAssay data set” (2004).
# Active and inactive are the calls of the source. Cut-off read from the data, not from the text of the source, for most assays here: actives have a measured EC50 and inactives only a lower limit.
# How the values were obtained:
# Cytochrome P450 2C9 = Cytochrome P450 2C9 (Homo sapiens, UniProt P11712)
# Streptococcus = test: Group A Streptococcus viability loss, dose response, counter-screen for streptokinase expression inhibitor project, luminescence, BacTiterGlo (AID 1915); format: functional, organism-based;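 note: potency for reduction of bacterial viability or growth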
# Streptokinase A = biological target: T1, Streptokinase A (Streptococcus pyogenes serotype M1, UniProt P10520); test: S. pyogenes streptokinase expression inhibitors, potency, dose response, plasminogen activation absorbance, OD405 (AID 1914); format: functional, Streptococcus pyogenes M1 GAS;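 note: secreted streptokinase activity via plasminogen activation per viability signal from cell pellet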
# T1 sequence (P10520 whole entry): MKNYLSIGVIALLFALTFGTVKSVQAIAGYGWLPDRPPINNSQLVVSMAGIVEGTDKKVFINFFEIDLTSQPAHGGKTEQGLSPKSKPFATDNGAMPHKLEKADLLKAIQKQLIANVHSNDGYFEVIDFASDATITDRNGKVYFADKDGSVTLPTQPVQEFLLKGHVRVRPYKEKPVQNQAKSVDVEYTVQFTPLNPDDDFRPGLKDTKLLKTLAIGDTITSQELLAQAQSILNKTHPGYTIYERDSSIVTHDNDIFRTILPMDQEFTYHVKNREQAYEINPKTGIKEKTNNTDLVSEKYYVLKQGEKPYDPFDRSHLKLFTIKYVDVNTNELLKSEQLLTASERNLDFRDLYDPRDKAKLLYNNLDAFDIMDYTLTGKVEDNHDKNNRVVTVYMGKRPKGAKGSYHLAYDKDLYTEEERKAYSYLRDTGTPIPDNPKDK
# [1] = tested on: Streptococcus sp. 'group A'; test: growth inhibition of control SK(-) GAS strain, dose response, counter-screen for streptokinase expression inhibitor project, luminescence, kanamycin, BacTiterGlo, confirmation (AID 1900); format: functional, organism-based
# [2] = NIH-3T3 fibroblast cytotoxicity, dose response, cytotoxicity control, cell-based, fluorescence, Alamar Blue, secondary assay (AID 2327); format: functional;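 note: NIH-3T3 mouse fibroblasts cultured with fluconazole at 8 µg/mL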
# [3] = C. albicans growth with fluconazole, confirmation, fluorescence, retest (AID 2467); format: functional, cell-based
# INS1 = test: beta cell apoptosis inhibitors, cytokine rescue, dose response, luminescence, retest (AID 449756); format: functional, cell-based; settings: Rattus norvegicus;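 note: cell death triggered by IL-1 beta plus TNF-alpha plus IFN-gamma mixture; protective hits raise ATP signal compared with cytokine alone wells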
# [4] = cytotoxicity toward NIH3T3 fibroblasts, dose response, counter-screen, cell-based, ATP luminescence, mouse fibroblasts (AID 2010); format: functional;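 note: cells exposed to compound for about 90 hours before reading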
# [5] = inhibitors of intracellular T. cruzi replication, confirmation, NIH3T3 host cells, beta-gal luminescence (AID 2044); format: functional, cell-based;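 note: intracellular parasites grown in NIH/3T3 mouse fibroblasts as host cells; luminescent beta-galactosidase reporter signal from transgenic T. cruzi replicating inside host cells; inhibitors lower the luminescence signal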
# [6] = Luminescence Cell-Based Dose Retest to Confirm Inhibitors of Cancer Stem Cells. [Related pubchem assays (depositor defined):AID2717, AID2721]; format: functional; settings: Homo sapiens
# [7] = biological target: T2, Corticotropin-releasing factor receptor 2/Corticotropin-releasing factor-binding protein (Homo sapiens, UniProt P24387+Q13324); test: activators of CRF receptor 2 with binding protein – uHTS hits, confirmation (AID 602473); format: functional; settings: read-out: EC50_Mean
# T2 sequence (Q13324 whole entry): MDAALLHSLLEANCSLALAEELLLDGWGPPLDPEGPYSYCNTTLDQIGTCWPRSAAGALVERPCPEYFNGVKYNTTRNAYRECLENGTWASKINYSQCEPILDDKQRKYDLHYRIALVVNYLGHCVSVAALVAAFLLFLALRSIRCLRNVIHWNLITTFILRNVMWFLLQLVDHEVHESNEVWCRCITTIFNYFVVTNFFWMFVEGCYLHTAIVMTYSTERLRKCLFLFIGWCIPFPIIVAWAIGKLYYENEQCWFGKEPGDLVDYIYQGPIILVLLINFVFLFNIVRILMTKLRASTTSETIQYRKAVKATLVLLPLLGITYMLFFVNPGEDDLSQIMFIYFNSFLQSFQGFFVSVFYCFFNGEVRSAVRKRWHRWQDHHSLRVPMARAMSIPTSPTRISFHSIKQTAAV
# T2 sequence (P24387 whole entry): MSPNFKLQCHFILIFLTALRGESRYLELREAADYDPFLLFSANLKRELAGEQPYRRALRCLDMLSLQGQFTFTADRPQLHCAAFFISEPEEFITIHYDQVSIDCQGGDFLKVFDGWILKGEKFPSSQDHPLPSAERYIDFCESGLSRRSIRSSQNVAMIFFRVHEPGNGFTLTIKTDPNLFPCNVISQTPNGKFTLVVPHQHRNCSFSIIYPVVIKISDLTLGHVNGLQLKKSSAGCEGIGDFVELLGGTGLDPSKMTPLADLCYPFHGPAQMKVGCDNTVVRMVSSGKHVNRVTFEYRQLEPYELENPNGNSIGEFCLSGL
# Chain of Cytochrome P450 2C9 (P11712 whole entry): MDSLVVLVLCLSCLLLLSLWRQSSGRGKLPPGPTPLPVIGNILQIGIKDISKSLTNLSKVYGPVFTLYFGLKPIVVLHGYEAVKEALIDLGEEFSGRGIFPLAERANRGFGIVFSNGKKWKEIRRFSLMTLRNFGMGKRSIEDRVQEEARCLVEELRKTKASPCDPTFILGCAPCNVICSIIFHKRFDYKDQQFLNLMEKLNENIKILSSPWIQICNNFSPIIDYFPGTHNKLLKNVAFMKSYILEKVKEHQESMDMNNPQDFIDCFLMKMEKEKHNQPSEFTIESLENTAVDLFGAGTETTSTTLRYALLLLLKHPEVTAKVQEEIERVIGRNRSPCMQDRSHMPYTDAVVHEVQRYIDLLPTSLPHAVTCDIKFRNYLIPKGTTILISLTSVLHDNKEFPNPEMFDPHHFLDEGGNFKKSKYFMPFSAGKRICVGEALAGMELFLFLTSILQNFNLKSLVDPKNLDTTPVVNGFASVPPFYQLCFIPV
compound,measurement,setting,value
COc1ccc2c(c1)c(CC(=O)O)c(C)n2Cc1ccc(Cl)cc1,AC50,Cytochrome P450 2C9,12.6 µM (inconclusive)
CC(C)CCOc1ccc(NC(=O)C2OC3OC(C)(C)OC3C3OC(C)(C)OC23)cc1 (configuration not stated),AC50,Cytochrome P450 2C9,25.1 µM (inconclusive)
CC1(C)S[C@@H]2[C@H](NC(=O)COc3ccccc3)C(=O)N2C1C(=O)OCc1ccccc1 (some centres not stated),EC50,Streptococcus,2.56 µM (active)
same,EC50,Streptokinase A,> 150 µM (not active)
same,EC50,[1],1.42 µM (active)
Cc1cccc(NC(=O)NNC(=O)c2cc3ccccc3cc2O)c1C,EC50,[2],80.6 µM (active)
same,EC50,[3],> 38 µM (not active)
CC(=O)c1ccccc1OCCOCCOc1ccccc1C(C)=O,AC50,INS1,31.1 µM (active)
COc1ccc(CN(C)CC(=O)c2c(N)n(Cc3ccccc3)c(=O)n(C)c2=O)c(OC)c1,EC50,[4],> 60 µM (not active)
same,EC50,[5],2.78 µM (active)
COc1cc(OC)c(NC(S)=NCc2ccccc2)cc1Cl,EC50,[2],> 160 µM (inactive)
same,EC50,[3],> 38 µM (not active)
COc1ccc(/C=C/C2=CCN(Cc3ccc(OC)cc3)CC2)cc1,EC50,[4],> 60 µM (not active)
same,EC50,[5],3.17 µM (active)
CSc1ccc(/C=C/c2ccc3cccc(O)c3n2)cc1,EC50,Streptococcus,14 µM (active)
same,EC50,[1],0.693 µM (active)
Cc1ccc(-n2c(N)c(-c3nc4ccccc4n3C)sc2=S)cc1,EC50,Streptococcus,> 150 µM (not active)
same,EC50,Streptokinase A,> 150 µM (not active)
same,EC50,[1],39.6 µM (active)
Cc1ccc2nc(N=C(NS(=O)(=O)c3ccc(F)cc3)c3ccccc3)sc2c1,EC50,Streptococcus,10 µM (active)
same,EC50,Streptokinase A,> 50 µM (not active)
same,EC50,[1],5.01 µM (active)
CSc1cnc2c(N)nc(N(C)C)nc2n1,EC50,[2],> 160 µM (inconclusive)
same,EC50,[3],2.63 µM (active)
CC(=O)c1c(O)cc(=O)n(-c2ccccc2)c1-c1cccc2ccccc12,AC50,Cytochrome P450 2C9,22.4 µM (inconclusive)
COc1cc(OC)c(C=O)c(OC(=O)N2CCOCC2)c1,AC50,[6],> 195 µM (inactive)
O=C(c1ccc(O)cc1)c1ccc(C(=O)c2ccc(O)cc2)cc1,EC50,Streptococcus,31.4 µM (active)
same,EC50,Streptokinase A,> 150 µM (not active)
same,EC50,[1],2.84 µM (active)
CCn1cc(C(=O)N[C@H](C)c2ccccc2)c(=O)c2cc(F)c(N3CCN(C)CC3)cc21,AC50,[6],0.796 µM (active)
CN1CCc2nc(SCc3ccc(C(C)(C)C)cc3)c(C#N)cc2C1,EC50,[4],19 µM (active)
same,EC50,[5],0.465 µM (active)
COc1ccccc1CNc1nc(-c2ccc(N(C)C)cc2)nc2ccccc12,AC50,Cytochrome P450 2C9,0.794 µM (inconclusive)
CC1(C)C=Cc2c(c3c(c4c(=O)c(-c5ccc(O)cc5)coc24)OC(C)(C)CC3)O1,AC50,[6],6.61 µM (active)
Cc1ccccc1CN(C)CC(=O)Nc1ccccc1-c1ccccc1,EC50,Streptococcus,> 150 µM (not active)
same,EC50,Streptokinase A,23.3 µM (active)
same,EC50,[1],7.65 µM (active)
CC(=O)c1ccc(-c2cc([C@H]3[C@H]4C=CC[C@@H](C)[C@@H]4C(=O)N3Cc3ccccc3)ccc2F)cc1,AC50,[6],5.46 µM (active)
O=C(CSc1nnc(CNC(=O)c2ccccc2)o1)NCc1ccccc1,EC50,Streptococcus,> 150 µM (not active)
same,EC50,Streptokinase A,> 150 µM (not active)
same,EC50,[1],> 150 µM (not active)
COc1ccc(C(=O)N2CCc3c([nH]c4ccccc34)C2C(F)(F)F)cc1 (configuration not stated),EC50,Streptococcus,> 150 µM (not active)
same,EC50,Streptokinase A,> 150 µM (not active)
same,EC50,[1],> 150 µM (not active)
COc1cc(OC)cc(C(=O)Nc2cccc(N3CCCC3)c2)c1,EC50,[4],> 30 µM (not active)
same,EC50,[5],3.33 µM (active)
CC1(C)CC(=O)C2=C(C1)OC1=C(C(=O)CC(C)(C)C1)C2c1cc([N+](=O)[O-])cc([N+](=O)[O-])c1O,EC50,[2],> 160 µM (inactive)
same,EC50,[3],0.221 µM (active)
Cn1c(=S)c2nc(SCc3cccnc3)[nH]c2n(C)c1=O,AC50,Cytochrome P450 2C9,6.31 µM (inconclusive)
CN1CCN(CCOc2ccc(Cl)c(Cl)c2)CC1,EC50,[4],> 60 µM (not active)
same,EC50,[5],0.516 µM (active)
CC(C)Cc1ccc(C(C)C(=O)Nc2ccc(O)cc2)cc1 (configuration not stated),EC50,[7],3.77 µM (active)
COc1cc2cc(C(=O)N3CCOCC3)cc(-c3ccc(C)cc3)c2cc1OC,AC50,INS1,6.42 µM (active)
CCCOc1ccc(NCC(=O)Nc2ccc(C)cc2C)cc1,EC50,[4],> 60 µM (not active)
same,EC50,[5],3.07 µM (active)
Cc1ccc(NC(=S)N(CCCN2CCCC2)Cc2cccn2Cc2ccc(Cl)cc2)cc1Cl,AC50,[6],5.36 µM (active)
COc1ccc(CCC(C)NCC2CCCCC2)cc1 (configuration not stated),AC50,[6],5.09 µM (active)
COc1ccc(S(=O)(=O)N2CCCCCC2)cc1N(C)S(=O)(=O)c1ccc(Cl)cc1,EC50,[4],> 60 µM (not active)
same,EC50,[5],2.21 µM (active)
CC(C)(C)c1cc(C(=O)NNc2cccc(Cl)c2)n(Cc2ccccc2)n1,AC50,[6],1.34 µM (active)
O=c1c2ccccc2nc(SCCN2CCCCC2)n1CCc1ccccc1,EC50,[4],> 60 µM (not active)
same,EC50,[5],1.57 µM (active)
COc1ccc(-n2c(=O)c3c4c(sc3n3c(S)nnc23)CCC4)cc1,EC50,Streptococcus,17.4 µM (active)
same,EC50,[1],15.7 µM (active)
Cc1ccc(-c2csc(-c3c[nH]c4ccccc34)n2)c(C)c1,EC50,Streptococcus,7.96 µM (active)
same,EC50,Streptokinase A,> 150 µM (not active)
same,EC50,[1],12 µM (active)
same,AC50,[6],2.88 µM (active)
COc1cnc(-c2ccccn2)nc1Oc1ccc(C(C)(C)C)cc1,AC50,INS1,6.45 µM (active)
same,EC50,Streptococcus,19.2 µM (active)
same,EC50,Streptokinase A,> 150 µM (not active)
same,EC50,[1],12.4 µM (active)
CN1CCN(CCCOc2ccc(-c3ccccc3)cc2)CC1,EC50,[4],7.93 µM (active)
same,EC50,[5],0.988 µM (active)
COc1ccccc1CNC(=O)C(=O)NCC1CCCN1S(=O)(=O)c1cccs1 (configuration not stated),EC50,[4],> 60 µM (not active)
same,EC50,[5],2.54 µM (active)
O=C(NCCc1ccccc1F)C1CCCN1S(=O)(=O)c1ccc2ccccc2c1 (configuration not stated),EC50,[4],> 60 µM (not active)
same,EC50,[5],1.63 µM (active)
O=[N+]([O-])c1ccc(CP(=O)(c2ccccc2)c2ccccc2)cc1,AC50,[6],> 195 µM (inactive)
O=C(Nc1cccc(-c2csc(Nc3ccc(Cl)cc3)n2)c1)c1cc([N+](=O)[O-])cc(C(F)(F)F)c1,AC50,[6],1.56 µM (active)
Cc1ccc(NS(=O)(=O)c2ccc(NC(=O)c3ccccc3C(=O)O)cc2)c(C)c1,EC50,[4],> 60 µM (not active)
same,EC50,[5],> 60 µM (not active)
Cc1cc2oc(=O)cc(CN3CCN(S(=O)(=O)/C=C/c4ccccc4)CC3)c2cc1C,EC50,[4],> 60 µM (inconclusive)
same,EC50,[5],2.02 µM (active)
CCN(CC)CCN(C(=O)c1ccc2ccccc2c1)c1nc2ccc(OC)cc2s1,EC50,[2],> 160 µM (inactive)
same,EC50,[3],> 38 µM (not active)
Cc1ccc(-c2cc(-c3ccccc3)nc(N(C)N)n2)cc1,EC50,Streptococcus,> 150 µM (not active)
same,EC50,Streptokinase A,> 150 µM (not active)
same,EC50,[1],14.6 µM (active)
c1ccc(CSc2nnc([C@@H]3CCCN3)o2)cc1,AC50,Cytochrome P450 2C9,5.62 µM (inconclusive)
Cc1nc(SCc2nc3cc(C(F)(F)F)ccc3[nH]2)c2oc3ccccc3c2n1,AC50,[6],4.11 µM (active)
COc1cc(/C=N/N(c2ccccc2)c2ccccc2)ccc1O,AC50,[6],5.16 µM (active)
CCCCc1ccc(N/N=C(\C(C)=O)C(=O)Nc2ccc(NC(C)=O)cc2OC)cc1,AC50,[6],3.91 µM (active)
Cc1ccc(-c2nn3c(O)c4c(nc3c2C)CCCC4)cc1,AC50,Cytochrome P450 2C9,6.31 µM (inconclusive)
O=C1CN(/N=C/c2ccc([N+](=O)[O-])o2)C(=O)N1 [NITROFURANTOIN],EC50,Streptococcus,9.83 µM (active)
same,EC50,Streptokinase A,> 150 µM (not active)
same,EC50,[1],3.16 µM (active)
